Test results published in patent US20100022559A1, “BISOXIMES AS FUNGICIDES” (BAYER CROPSCIENCE AG, priority 2006, published 2010).
Each block holds one molecule with its values, some of them ahead of it.

Assay: logP determination by HPLC on a reversed-phase column (C 18), EEC Directive 79/831 Annex V.A8
Type: physicochemical
Protocol: The stated logP values were determined in accordance with EEC Directive 79/831 Annex V.A8 by HPLC (high performance liquid chromatography) on a reversed-phase column (C 18). Temperature: 43° C.

[1] = method marker [a] (footnote not shown), isomer A / isomer B / isomer mixture as noted in the cell
[2] = method marker [b], isomer A / isomer B / isomer mixture as noted in the cell
[3] = [a] acidic range, pH 2.3, 0.1% aqueous phosphoric acid and acetonitrile
[4] = [b] LC-MS, acidic range, pH 2.7, 0.1% aqueous formic acid and acetonitrile
[5] = [c] LC-MS, neutral range, pH 7.8, 0.001 molar aqueous ammonium bicarbonate solution and acetonitrile

Structure (SMILES): Cc1cccnc1C(CC(C)C)=NOCCCON=C(CC(C)C)c1ncccc1C [compound 93]
logP [1]: 5.96^[a]

Structure (SMILES): CCC(C)(CON=C(C)c1cc(C)cc(C)n1)CON=C(C)c1cc(C)cc(C)n1 (centres unmarked) [Compound 794]
logP (value marked [b]): 3.91^[b]
logP (value marked [c]): 7.18^[c]

Structure (SMILES): CCCC(CON=C(C)c1cc(C)cc(C)n1)CON=C(C)c1cc(C)cc(C)n1 (centres unmarked) [Compound 555]
logP (method marked [b] in Table 1): 3.22^[b]
logP (method marked [c] in Table 1): 7.15^[c]

Structure (SMILES): C=C(CON=C(C)c1ccc(Cl)nc1)CON=C(C)c1cccc(C)n1 [compound 201]
logP [2]: 3.94^[b]

Structure (SMILES): C=C(CON=C(C)c1cccc(C)n1)CON=C(C)c1ccc(C)c(C)n1 [Compound 204]
logP [2]: 3.10^[b]

Structure (SMILES): CC(=NOCCCCON=C(C)c1cncc(C)n1)c1cccc(C)n1 [compound 453]
logP (value marked [b]): 1.88^[b]

Structure (SMILES): CCC(CON=C(C)c1nc(C)ccc1C)CON=C(C)c1nc(C)ccc1C (single isomer, unassigned) [compound 751]
logP (method marked [b] in Table 1): 3.19^[b]
logP (method marked [c] in Table 1): 5.54^[c]

Structure (SMILES): C=C(CON=C(C)c1cccc(C(C)=O)n1)CON=C(C)c1cccc(C(C)=O)n1 [compound 120]
logP [2]: 5.15^[b]

Structure (SMILES): C=C(CON=Cc1cc(C(F)(F)F)cc(C)n1)CON=C(C)c1cccc(C)n1 (mixture of isomers) [Compound 671]
logP (method marked [b] in Table 1): 4.61^[b]

Structure (SMILES): CCC(=NOCCCCCCON=C(C)c1cccc(C)n1)c1cccc(C)n1 [Compound 346]
logP (value marked [b]): 5.59^[b]

Structure (SMILES): CC(=NOCC(CON=C(C)c1nc(C)ccc1C)C(C)(C)C)c1nc(C)ccc1C (single isomer, unassigned) [compound 756]
logP (method marked [b] in Table 1): 3.22^[b]
logP (method marked [c] in Table 1): 5.20^[c]

Structure (SMILES): Cc1cc(C)nc(C(N)=NOC/C=C/CON=C(N)c2cc(C)cc(C)n2)c1 (single isomer, unassigned) [compound 770]
logP (value marked [b]): 2.55^[b] (isomer B)

Structure (SMILES): CC(=NOCC1(CON=C(C)c2ccc(C)c(C)n2)CC1)c1cc(C)cc(C)n1 [Compound 695]
logP (method marked [b] in Table 1): 2.61^[b]
logP (method marked [c] in Table 1): 6.02^[c]

Structure (SMILES): CC(=NOCC1(CON=C(C)c2cc(C)cc(C)n2)CCCC1)c1cc(C)cc(C)n1 [Compound 589]
logP (method marked [b] in Table 1): 3.35^[b]
logP (method marked [c] in Table 1): 7.36^[c]

Structure (SMILES): C=C(CO/N=C(\N)c1ncc(F)cc1F)CO/N=C(\N)c1ncc(F)cc1F [compound 45]
logP [2]: 2.42^[b]

Structure (SMILES): CC(=NOCC(C)(C)CON=C(C)c1nccc(C)n1)c1cccc(C)n1 [compound 511]
logP (value marked [b]): 3.02^[b]

Structure (SMILES): Cc1ccc(C(=NOCCCON=C(c2ccc(C)c(C)n2)C(C)C)C(C)C)nc1C (mixture of isomers) [compound 237]
logP [1]: 4.00^[a]

Structure (SMILES): CCC(=NOCC(C)CON=C(CC)c1cc(C)cc(C)n1)c1cc(C)cc(C)n1 (single isomer, unassigned) [compound 691]
logP (method marked [a] in Table 1): 2.75^[a] (isomer A)

Structure (SMILES): CC(=NOCC(C)(C)CON=C(C)c1sc(C)nc1C)c1cccc(C)n1 [compound 546]
logP (method marked [b] in Table 1): 4.37^[b]

Structure (SMILES): CC(=NOCC(CON=C(C)c1cc(C)cc(C)n1)Cc1ccccc1)c1cc(C)cc(C)n1 (centres unmarked) [Compound 582]
logP (method marked [b] in Table 1): 3.62^[b]
logP (method marked [c] in Table 1): 6.97^[c]

Structure (SMILES): CC(=NOCCCCCCON=C(C)c1nc(C)c(C)s1)c1cccc(C)n1 (single isomer, unassigned) [compound 389]
logP (value marked [b]): 5.84^[b] (isomer A)

Structure (SMILES): CC(=NOCC1(CON=C(C)c2ccc(C)c(C)n2)CC(CC(C)C)=NO1)c1ccc(C)c(C)n1 (centres unmarked) [compound 630]
logP (method marked [b] in Table 1): 3.70^[b]

Structure (SMILES): CC(=NOCCCON=C(C)c1cccc(C(C)C)n1)c1cccc(C(C)C)n1 [compound 230]
logP [1]: 7.36^[a]

Structure (SMILES): CC(=NOCC1(CON=C(C)c2nc(C)ccc2C)CC1)c1nc(C)ccc1C (single isomer, unassigned) [compound 764]
logP (value marked [b]): 2.17^[b]
logP (value marked [c]): 4.00^[c]

Structure (SMILES): C=C(CON=C(Br)c1cccc(C)n1)CON=C(Br)c1cccc(C)n1 [compound 746]
logP (method marked [b] in Table 1): 4.41^[b]

Structure (SMILES): C=C(CON=C(C)c1cccc(C)n1)CON=C(C)c1cccc2ccccc12 [compound 406]
logP (value marked [b]): 5.02^[b]

Structure (SMILES): C=C(CON=C(C)c1cccc(C)n1)CON=C(C)c1ccccc1Cl [compound 402]
logP (value marked [b]): 4.74^[b]

Structure (SMILES): CC(=NOCCCCON=C(C)c1cccc(C)n1)c1ccccc1 [compound 385]
logP (value marked [b]): 4.68^[b]

Structure (SMILES): C=C(CON=C(C)c1cccc(C)n1)CON=C(C)c1cccc(Cc2ccccc2)n1 [Compound 350]
logP (value marked [b]): 5.71^[b]

Structure (SMILES): CC(=NOCC(C)CON=C(CC(C)C)c1ncccc1C)c1cccc(C)n1 (centres unmarked) [compound 422]
logP (value marked [b]): 4.51^[b]

Structure (SMILES): C=C(CON=C(C)c1nc(C)cc(OC)n1)CON=C(C)c1nc(C)cc(OC)n1 [compound 64]
logP [2]: 3.17^[b]

Structure (SMILES): CC(=NOCC(C)(C)CON=C(C)c1ccc2c(n1)CCCC2)c1ccc2c(n1)CCCC2 [Compound 303]
logP (value marked [a]): 5.49^[a]

Structure (SMILES): C=C(CON=C(C)c1cc(C)cc(C)n1)CON=C(C)c1cc(C)cc(C)n1 [Compound 219]
logP [2]: 1.98^[b]

Structure (SMILES): CC(=NOC/C=C\CON=C(C)c1ccccn1)c1ccccn1 [Compound 541]
logP (method marked [b] in Table 1): 3.04^[b]

Structure (SMILES): CC(=NOCC(=O)ON=C(C)c1cccc(C)n1)c1cccc(C)n1 [compound 158]
logP [1]: 2.50^[a]
logP [2]: 2.57^b]

Structure (SMILES): CC(=NOCC1(CON=C(C)c2cc(C)cc(C)n2)CC(c2cccc(Cl)c2)=NO1)c1cc(C)cc(C)n1 (centres unmarked) [compound 646]
logP (method marked [b] in Table 1): 3.28^[b]

Structure (SMILES): C/C(=N\OCC(C)(C)CON)c1ccc(C)c(C)n1 [XII-6]
logP [3]: 0.98^[a]
logP [4]: 0.98^[b]
logP [5]: 2.94^[c]

Structure (SMILES): COCc1nc(/C(N)=N/OCCCCO/N=C(\N)c2nc(COC)c(C)c(COC)n2)nc(COC)c1C [compound 37]
logP [2]: 1.75^[b]

Structure (SMILES): CC(=NOCC(C)(C)CON=C(Cc1ccccc1)c1ncccc1C)c1cccc(C)n1 [compound 363]
logP (value marked [b]): 5.71^[b]

Structure (SMILES): Cc1nc(C(N)=NOC/C=C\CON=C(N)c2nc(C)c(Cl)c(C)n2)nc(C)c1Cl [compound 775]
logP (value marked [b]): 2.77^[b]

Structure (SMILES): CC(=NOCCCCON=C(C)c1cccc(C)n1)c1ccc(C)nc1 [compound 382]
logP (value marked [b]): 1.90^[b]

Structure (SMILES): Cc1nc(/C(N)=N/OCc2ccccc2CO/N=C(\N)c2nc(C)c3c(n2)CCCC3)nc2c1CCCC2 [compound 707]
logP (method marked [b] in Table 1): 3.25^[b]

The next lines start with the values.

logP (method marked [a] in Table 1): 7.36^[a]
Structure (SMILES): CC(=NOCC(C)(C)CON=C(C)c1cccc(-c2ccc(C(C)(C)C)cc2)n1)c1cccc(-c2ccc(C(C)(C)C)cc2)n1 [compound 580]

logP (value marked [b]): 4.51^[b]
Structure (SMILES): CC(=NOCC(C)(C)CON=C(c1ccccc1)c1ncccc1C)c1cccc(C)n1 [compound 365]

logP [1]: 2.31^[a]
logP (method marker [c] (footnote not shown)): 5.44^[c]
Structure (SMILES): CC(=NOCC(C)CON=C(C)c1cccc(C)n1)c1cccc(C)n1 (centres unmarked) [Compound 1]

logP (method marked [a] in Table 1): 5.69^[a]
Structure (SMILES): CCC(=NOCC1(CON=C(CC)c2cccc(C)n2)CC(c2ccccc2Cl)=NO1)c1cccc(C)n1 (centres unmarked) [compound 654]

logP (value marked [b]): 5.71^[b]
Structure (SMILES): CC(=NOCC(C)CON=C(C)c1cccc(C)n1)c1cccc(C(F)(F)F)c1 (centres unmarked) [compound 433]

logP (value marked [b]): 5.46^[b] (isomer A)
Structure (SMILES): CC(=NOCCCCON=C(CC(C)C)c1cccc(C)n1)c1cccc(C)n1 (single isomer, unassigned) [compound 331]

logP (value marked [b]): 5.65^[b]
Structure (SMILES): CC(=NOCC(C)(C)CON=C(C)c1cccc(C)n1)c1ccc2c(c1)CC(C)O2 (centres unmarked) [compound 482]

logP (value marked [b]): 2.41^[b]
Structure (SMILES): CC(=NOCCCCON=C(C)c1cc(C)cc(C)n1)c1cccc(C)n1 [compound 447]

logP (method marked [b] in Table 1): 5.37^b]
logP (method marked [c] in Table 1): 6.34^[c]
Structure (SMILES): CC(=NOCC(CON=C(C)c1cccc(C)n1)Cc1ccccc1)c1cccc(C)n1 (centres unmarked) [Compound 583]

logP (value marked [b]): 1.70^[b]
logP (value marked [c]): 2.81^[c]
Structure (SMILES): CC(=NOCC1(CON=C(C)c2nc(C)ccc2C)COC(=O)N1)c1nc(C)ccc1C (centres unmarked) [compound 859]

logP [2]: 4.98^[b]
Structure (SMILES): C=C(CON=C(C)c1cccc(C)n1)CON=C(C)c1cccc(Br)n1 [Compound 206]

logP (method marked [b] in Table 1): 4.72^[b]
Structure (SMILES): CCCC1=NOC(CON=C(CC)c2cccc(C)n2)(CON=C(CC)c2cccc(C)n2)C1 (centres unmarked) [compound 608]

logP (value marked [b]): 3.65^[b] (isomer B)
Structure (SMILES): CCC(=NOCCCCON=C(C)c1cccc(C)n1)c1ncccc1C (single isomer, unassigned) [compound 328]

logP (value marked [a]): 5.27^[a]
Structure (SMILES): CC(=NOCC(C)CON=C(C)c1cccc(C)n1)c1ccc2c(c1)CC(C)O2 (centres unmarked) [compound 494]

logP [2]: 5.25^[b]
Structure (SMILES): C=C(CON=C(C)c1cccc(C)n1)CON=C(C)c1ccc2ccccc2n1 [Compound 202]

logP (value marked [b]): 1.75^[b] (isomer B)
Structure (SMILES): COCc1nc(C(N)=NOC/C=C/CON=C(N)c2nc(COC)c(C)c(COC)n2)nc(COC)c1C (single isomer, unassigned) [compound 769]

logP [2]: 1.51^[b]
Structure (SMILES): CC(=NOCCCON=C(C)c1cccnc1)c1cccnc1 [compound 33]

logP (value marked [b]): 4.02^[b]
logP (value marked [c]): 6.45^[c]
Structure (SMILES): CC(=NOCC(CON=C(C)c1ccc(C)c(C)n1)c1ccccc1)c1ccc(C)c(C)n1 (centres unmarked) [Compound 318]

logP [3]: 0.78^[a]
logP [4]: 0.78^[b]
logP [5]: 2.11^[c]
Structure (SMILES): C/C(=N\OCC1(CON)CC1)c1cccc(C)n1 [XII-13]

logP (value marked [b]): 1.75^[b]
Structure (SMILES): Cc1cc(C)nc(C(N)=NOC/C=C\CON=C(N)c2nc(C)cc(C)n2)n1 [compound 773]

logP (value marked [b]): 2.84^[b]
logP (value marked [c]): 6.08^[c]
Structure (SMILES): CC(=NOCC1(CON=C(C)c2ccc(C)c(C)n2)CC1)c1ccc(C)c(C)n1 [Compound 315]

logP (method marked [a] in Table 1): 3.22^[a]
Structure (SMILES): CCC(=NOCC1(CON=C(CC)c2cc(C)cc(C)n2)CC1)c1cc(C)cc(C)n1 (mixture of isomers) [Compound 570]

logP [2]: 1.71^[b]
Structure (SMILES): CC(=NOCCON=C(C)c1cc(C)ccn1)c1cc(C)ccn1 [compound 34]

logP (method marked [b] in Table 1): 5.84^[b]
Structure (SMILES): CC(=NOCc1ccc(CON=C(C)c2nc(C)c(C)s2)cc1)c1nc(C)c(C)s1 [compound 736]

logP [2]: 3.42^[b]
Structure (SMILES): C=C(CON=C(C)c1nccc(OCC)n1)CON=C(C)c1nccc(OCC)n1 [compound 252]

logP (method marked [b] in Table 1): 6.22^[b]
Structure (SMILES): CON=C(c1ccccc1)c1cccc(C(C)=NOCC(C)CON=C(C)c2cccc(C)n2)n1 (mixture of isomers) [Compound 693]
